Reference: patent publication US20180161400A1 (Emisphere Technologies, Inc., priority 2004, published 2018)
Values joined by “and” are separate entries in the source; they are usually repeats but may differ in a detail not shown here. Equal values may be shown once. Where a name gives a salt, the structure may show the parent alone.

Key:
[1] = cited from earlier work
[2] = system: Sprague Dawley rats; assay: Single oral gavage of insulin/4-CNAB/metformin solutions to fasted rats, blood glucose by hand-held glucometer; assay type: in vivo; details: for Percent Change in Glucose (from baseline), Mean / Blood Glucose, Mean: group mean n=5; for Percent Change in Glucose Compared to Carrier Alone, Mean: group mean; for Percent Change in Glucose Compared to Carrier Alone: individual rat vs vehicle group mean; for Percent Change in Glucose (from baseline) / Blood Glucose: individual rat
Description: These solutions were sonicated at 35° C. and the pH adjusted to 6.5-8.5 with sodium hydroxide.
Sprague Dawley rats were fasted overnight (16-24 h) and were divided into five groups for oral dosing (n=5 per group). Each rat received a single oral dose (by gavage) of dosing solution at a final dose volume of 1 mL/kg. […] The study also included a control group that received an oral dose of vehicle (water) alone. Blood samples were collected by the tail clip method at 0, 15, 30, 45, 60, 120, 180, 240 and 300 minutes and blood glucose was measured immediately using a hand-held glucometer.

[3] = system: Type 2 diabetics; details: cited from earlier work
[4] = cited from earlier work; remark: listed apart in the source
[5] = system: people with Type 2 diabetes; details: cited from earlier work
[6] = system: patients with impaired glucose tolerance; details: compared with placebo, over 2.8 years; cited from earlier work
[7] = cited from earlier work; remark: listed apart in the source
[8] = in vivo; cited from earlier work
[9] = 15 min, listed as Metformin (450)
[10] = 30 min, listed as Metformin (450)
[11] = 45 min, listed as Metformin (450)
[12] = 60 min, listed as Metformin (450)
[13] = 120 min, listed as Metformin (450)
[14] = 180 min, listed as Metformin (450)
[15] = 240 min, listed as Metformin (450)
[16] = 300 min, listed as Metformin (450)

Compound: CN(C)C(=N)N=C(N)N [Metformin hydrochloride]
- pH of a 1% aqueous solution [1]: 6.68

Compound: CN(C)C(=N)N=C(N)N [Metformin, 1,1-Dimethylbiguanidine]
- time of maximum decline in blood glucose ([2]; after oral administration): about 45 minutes
- Percent Change in Glucose (from baseline), Mean ([2]; 0 min): 0.000%
- Blood Glucose, Mean ([2]; 0 min (pre-dose baseline), label doses mg/kg oral): 99.000 mg/dL
- Percent Change in Glucose (from baseline), Mean ([2]; 15 min): 2.053%
- Blood Glucose, Mean ([2]; 15 min after single oral dose): 101.200 mg/dL
- Percent Change in Glucose (from baseline), Mean ([2]; 30 min): −3.264%
- Blood Glucose, Mean ([2]; 30 min after single oral dose): 95.600 mg/dL
- Percent Change in Glucose (from baseline), Mean ([2]; 45 min): −13.716%
- Blood Glucose, Mean ([2]; 45 min after single oral dose): 85.200 mg/dL
- Percent Change in Glucose (from baseline), Mean ([2]; 60 min): −17.653%
- Blood Glucose, Mean ([2]; 60 min after single oral dose): 81.200 mg/dL
- Percent Change in Glucose (from baseline), Mean ([2]; 120 min): −35.050%
- Blood Glucose, Mean ([2]; 120 min after single oral dose): 63.800 mg/dL
- Percent Change in Glucose (from baseline), Mean ([2]; 180 min): −38.670%
- Blood Glucose, Mean ([2]; 180 min after single oral dose): 60.400 mg/dL
- Percent Change in Glucose (from baseline), Mean ([2]; 240 min): −40.832%
- Blood Glucose, Mean ([2]; 240 min after single oral dose): 58.200 mg/dL
- Percent Change in Glucose (from baseline), Mean ([2]; 300 min): −37.001%
- Blood Glucose, Mean ([2]; 300 min after single oral dose): 62.400 mg/dL
- maximum decline in blood glucose from baseline ([2]; group mean percent change at the peak time stated in the text): −40.832%
- Percent Change in Glucose Compared to Carrier Alone, Mean ([2]; 0 min): 18.990%
- Percent Change in Glucose Compared to Carrier Alone, Mean ([2]; 15 min): 4.521%
- Percent Change in Glucose Compared to Carrier Alone, Mean ([2]; 30 min): 7.223%
- Percent Change in Glucose Compared to Carrier Alone, Mean ([2]; 45 min): −0.770%
- Percent Change in Glucose Compared to Carrier Alone, Mean ([2]; 60 min): 1.563%
- Percent Change in Glucose Compared to Carrier Alone, Mean ([2]; 120 min): −4.797%
- Percent Change in Glucose Compared to Carrier Alone, Mean ([2]; 180 min): −9.824%
- Percent Change in Glucose Compared to Carrier Alone, Mean ([2]; 240 min): −12.757%
- Percent Change in Glucose Compared to Carrier Alone, Mean ([2]; 300 min): −2.733%
- Percent Change in Glucose Compared to Carrier Alone ([2]; 0 min, listed as Metformin (450)): 29.808% and 5.769% and 12.981% and 17.788% and 28.606%
- Percent Change in Glucose Compared to Carrier Alone [2, 9]: −8.511% and 2.128% and 6.383% and 16.085%
- Percent Change in Glucose Compared to Carrier Alone [2, 10]: −4.063% and 8.352% (2×) and 16.253%
- Percent Change in Glucose Compared to Carrier Alone [2, 11]: −8.768% and 5.450% and −2.844% and 3.081%
- Percent Change in Glucose Compared to Carrier Alone [2, 12]: −7.500% and 5.000% (2×) and 3.750%
- Percent Change in Glucose Compared to Carrier Alone [2, 13]: −6.977% and 4.651% and −17.151% and 0.291%
- Percent Change in Glucose Compared to Carrier Alone [2, 14]: −22.287% and −0.293% and −7.625% and −9.091%
- Percent Change in Glucose Compared to Carrier Alone [2, 15]: −17.889% and −4.692% and −20.821% and −7.625%
- Percent Change in Glucose Compared to Carrier Alone [2, 16]: −6.752% and 9.325% and −34.084% and 20.579%
- Percent Change in Glucose (from baseline) ([2]; 0 min): 0.000%
- Blood Glucose ([2]; 0 min (pre-dose baseline), label doses mg/kg oral, listed as Metformin (450)): 108 mg/dL and 88 mg/dL and 94 mg/dL and 98 mg/dL and 107 mg/dL
- Percent Change in Glucose (from baseline) [2, 9]: 4.630% and −2.273% and 2.128% and 2.041% and 3.738%
- Blood Glucose ([2]; 15 min after single oral dose, label doses mg/kg, listed as Metformin (450)): 113 mg/dL and 86 mg/dL and 96 mg/dL and 100 mg/dL and 111 mg/dL
- Percent Change in Glucose (from baseline) [2, 10]: −9.259% and −3.409% and 2.128% and −2.041% and −3.738%
- Blood Glucose ([2]; 30 min after single oral dose, label doses mg/kg, listed as Metformin (450)): 98 mg/dL and 85 mg/dL and 96 mg/dL (2×) and 103 mg/dL
- Percent Change in Glucose (from baseline) [2, 11]: −15.741% and −12.500% and −5.319% and −16.327% and −18.692%
- Blood Glucose ([2]; 45 min after single oral dose, label doses mg/kg, listed as Metformin (450)): 91 mg/dL and 77 mg/dL and 89 mg/dL and 82 mg/dL and 87 mg/dL
- Percent Change in Glucose (from baseline) [2, 12]: −25.000% and −15.909% and −10.638% and −14.286% and −22.430%
- Blood Glucose ([2]; 60 min after single oral dose, label doses mg/kg, listed as Metformin (450)): 81 mg/dL and 74 mg/dL and 84 mg/dL (2×) and 83 mg/dL
- Percent Change in Glucose (from baseline) [2, 13]: −47.222% and −27.273% and −23.404% and −41.837% and −35.514%
- Blood Glucose ([2]; 120 min after single oral dose, label doses mg/kg, listed as Metformin (450)): 57 mg/dL (2×) and 64 mg/dL and 72 mg/dL and 69 mg/dL
- Percent Change in Glucose (from baseline) [2, 14]: −48.148% and −39.773% and −27.660% and −35.714% and −42.056%
- Blood Glucose ([2]; 180 min after single oral dose, label doses mg/kg, listed as Metformin (450)): 56 mg/dL and 53 mg/dL and 68 mg/dL and 63 mg/dL and 62 mg/dL
- Percent Change in Glucose (from baseline) [2, 15]: −50.926% and −36.364% and −30.851% and −44.898% and −41.121%
- Blood Glucose ([2]; 240 min after single oral dose, label doses mg/kg, listed as Metformin (450)): 56 mg/dL (2×) and 65 mg/dL and 54 mg/dL and 63 mg/dL
- Percent Change in Glucose (from baseline) [2, 16]: −35.185% and −34.091% and −27.660% and −58.163% and −29.907%
- Blood Glucose ([2]; 300 min after single oral dose, label doses mg/kg, listed as Metformin (450)): 70 mg/dL and 58 mg/dL and 68 mg/dL and 41 mg/dL and 75 mg/dL
- reduction of raised plasma insulin levels ([3]; cases of metabolic syndrome): ≤ 30%
- lowering of A1c, average ([3]; human, in vivo): 1.5%
- lowering of fasting blood glucose levels, average ([3]; human, in vivo): 25%
- lowering of postprandial blood glucose ([3]; human, in vivo): up to 44.5%
- non-absorbed fraction recovered in feces ([4]; after an oral dose): 20-30%
- maximum metformin plasma levels (Cmax) ([4]; controlled clinical trials, even at maximum doses): ≤ 4000 ng/mL
- steady state plasma concentrations ([4]; usual doses and dosing schedules): less than 1 μg/mL
- decrease in heart attacks ([5]; 10 year UKPDS, Type 2 diabetes): 39%
- decrease in overall mortality ([5]; 10 year UKPDS, Type 2 diabetes): 36%
- reduction of the incidence of type 2 diabetes [6]: 31%
- times less likely to cause lactic acidosis ([7]; compared with phenformin): 20 times
- Lactic acidosis occurrence, once in every ... of use ([7]; in vivo): 30,000 person-years
- mortality rate of lactic acidosis ([7]; in vivo): about 40%

Compound: CCCNC(=O)NS(=O)(=O)c1ccc(Cl)cc1 [chlorpropamide]
- average weight gain ([5]; UKPDS intensive therapy): 2.6 kg

Compound: Glargine insulin: long-acting insulin
- duration of activity [8]: 24 h
- peak effect [8]: no peak effect
